Measured values reported in ChEMBL document CHEMBL1156337, “Synthesis and evaluation of novel benzothiazole derivatives based on the bithiophene structure as potential radiotracers for beta-amyloid plaques in Alzheimer's disease” (Bioorg Med Chem, 2010).

Assays:
[1] = tested on: Lung; assay: Biodistribution in lung of Kunming mouse at 1 uCi, iv after 2 mins by gamma counting; format: ADME, organism-based; conditions: in vivo
[2] = tested on: Blood; assay: Biodistribution in blood of Kunming mouse at 1 uCi, iv after 120 mins by gamma counting; format: ADME, organism-based; conditions: in vivo, 2 h
[3] = tested on: Muscle tissue; assay: Biodistribution in muscle of Kunming mouse at 1 uCi, iv after 2 mins by gamma counting; format: ADME, organism-based; conditions: in vivo
[4] = tested on: Heart; assay: Biodistribution in heart of Kunming mouse at 1 uCi, iv after 2 mins by gamma counting; format: ADME, organism-based; conditions: in vivo
[5] = tested on: Spleen; assay: Biodistribution in spleen of Kunming mouse at 1 uCi, iv after 120 mins by gamma counting; format: ADME, organism-based; conditions: in vivo, 2 h
[6] = Partition coefficient, log D in n-octanol/0.05 M phosphate buffer at pH 7.4; format: physicochemical
[7] = tested on: Liver; assay: Biodistribution in liver of Kunming mouse at 1 uCi, iv after 2 mins by gamma counting; format: ADME, organism-based; conditions: in vivo
[8] = tested on: Kidney; assay: Biodistribution in kidney of Kunming mouse at 1 uCi, iv after 240 mins by gamma counting; format: ADME, organism-based; conditions: in vivo, 4 h
[9] = tested on: Stomach; assay: Biodistribution in stomach of Kunming mouse at 1 uCi, iv after 2 mins by gamma counting measured per organ; format: ADME, organism-based; conditions: in vivo
[10] = tested on: Stomach; assay: Biodistribution in stomach of Kunming mouse at 1 uCi, iv after 120 mins by gamma counting measured per organ; format: ADME, organism-based; conditions: in vivo, 2 h
[11] = tested on: Stomach; assay: Biodistribution in stomach of Kunming mouse at 1 uCi, iv after 240 mins by gamma counting measured per organ; format: ADME, organism-based; conditions: in vivo, 4 h
[12] = tested on: Brain; assay: Biodistribution in brain of Kunming mouse at 1 uCi, iv after 30 mins by gamma counting; format: ADME, organism-based; conditions: in vivo, 0.5 h
[13] = tested on: Lung; assay: Biodistribution in lung of Kunming mouse at 1 uCi, iv after 60 mins by gamma counting; format: ADME, organism-based; conditions: in vivo, 1 h
[14] = tested on: Muscle tissue; assay: Biodistribution in muscle of Kunming mouse at 1 uCi, iv after 120 mins by gamma counting; format: ADME, organism-based; conditions: in vivo, 2 h
[15] = tested on: Blood; assay: Biodistribution in blood of Kunming mouse at 1 uCi, iv after 30 mins by gamma counting; format: ADME, organism-based; conditions: in vivo, 0.5 h
[16] = tested on: Liver; assay: Biodistribution in liver of Kunming mouse at 1 uCi, iv after 120 mins by gamma counting; format: ADME, organism-based; conditions: in vivo, 2 h
[17] = tested on: Spleen; assay: Biodistribution in spleen of Kunming mouse at 1 uCi, iv after 240 mins by gamma counting; format: ADME, organism-based; conditions: in vivo, 4 h
[18] = tested on: Blood; assay: Biodistribution in blood of Kunming mouse at 1 uCi, iv after 240 mins by gamma counting; format: ADME, organism-based; conditions: in vivo, 4 h
[19] = tested on: Plasma; assay: Metabolic stability in mouse plasma assessed as deiodination after 2 hrs by HPLC analysis; format: ADME, cell-free
[20] = tested on: Heart; assay: Biodistribution in heart of Kunming mouse at 1 uCi, iv after 120 mins by gamma counting; format: ADME, organism-based; conditions: in vivo, 2 h
[21] = tested on: Lung; assay: Biodistribution in lung of Kunming mouse at 1 uCi, iv after 240 mins by gamma counting; format: ADME, organism-based; conditions: in vivo, 4 h
[22] = tested on: Brain; assay: Biodistribution in brain of Kunming mouse at 1 uCi, iv after 2 mins by gamma counting; format: ADME, organism-based; conditions: in vivo
[23] = tested on: Kidney; assay: Biodistribution in kidney of Kunming mouse at 1 uCi, iv after 30 mins by gamma counting; format: ADME, organism-based; conditions: in vivo, 0.5 h
[24] = tested on: Muscle tissue; assay: Biodistribution in muscle of Kunming mouse at 1 uCi, iv after 30 mins by gamma counting; format: ADME, organism-based; conditions: in vivo, 0.5 h
[25] = tested on: Brain; assay: Biodistribution in brain of Kunming mouse at 1 uCi, iv after 120 mins by gamma counting; format: ADME, organism-based; conditions: in vivo, 2 h
[26] = tested on: Brain; assay: Biodistribution in brain of Kunming mouse at 1 uCi, iv after 240 mins by gamma counting; format: ADME, organism-based; conditions: in vivo, 4 h
[27] = tested on: Muscle tissue; assay: Biodistribution in muscle of Kunming mouse at 1 uCi, iv after 240 mins by gamma counting; format: ADME, organism-based; conditions: in vivo, 4 h
[28] = tested on: Blood; assay: Biodistribution in blood of Kunming mouse at 1 uCi, iv after 2 mins by gamma counting; format: ADME, organism-based; conditions: in vivo
[29] = tested on: Spleen; assay: Biodistribution in spleen of Kunming mouse at 1 uCi, iv after 2 mins by gamma counting; format: ADME, organism-based; conditions: in vivo
[30] = tested on: Liver; assay: Biodistribution in liver of Kunming mouse at 1 uCi, iv after 60 mins by gamma counting; format: ADME, organism-based; conditions: in vivo, 1 h
[31] = tested on: Stomach; assay: Biodistribution in stomach of Kunming mouse at 1 uCi, iv after 60 mins by gamma counting measured per organ; format: ADME, organism-based; conditions: in vivo, 1 h
[32] = tested on: Kidney; assay: Biodistribution in kidney of Kunming mouse at 1 uCi, iv after 2 mins by gamma counting; format: ADME, organism-based; conditions: in vivo
[33] = tested on: Liver; assay: Biodistribution in liver of Kunming mouse at 1 uCi, iv after 240 mins by gamma counting; format: ADME, organism-based; conditions: in vivo, 4 h
[34] = tested on: Lung; assay: Biodistribution in lung of Kunming mouse at 1 uCi, iv after 120 mins by gamma counting; format: ADME, organism-based; conditions: in vivo, 2 h
[35] = tested on: Stomach; assay: Biodistribution in stomach of Kunming mouse at 1 uCi, iv after 30 mins by gamma counting measured per organ; format: ADME, organism-based; conditions: in vivo, 0.5 h
[36] = tested on: Brain; assay: Biodistribution in brain of Kunming mouse at 1 uCi, iv after 60 mins by gamma counting; format: ADME, organism-based; conditions: in vivo, 1 h
[37] = tested on: Liver; assay: Biodistribution in liver of Kunming mouse at 1 uCi, iv after 30 mins by gamma counting; format: ADME, organism-based; conditions: in vivo, 0.5 h
[38] = tested on: Kidney; assay: Biodistribution in kidney of Kunming mouse at 1 uCi, iv after 120 mins by gamma counting; format: ADME, organism-based; conditions: in vivo, 2 h
[39] = tested on: Spleen; assay: Biodistribution in spleen of Kunming mouse at 1 uCi, iv after 30 mins by gamma counting; format: ADME, organism-based; conditions: in vivo, 0.5 h
[40] = tested on: Blood; assay: Biodistribution in blood of Kunming mouse at 1 uCi, iv after 60 mins by gamma counting; format: ADME, organism-based; conditions: in vivo, 1 h
[41] = tested on: Heart; assay: Biodistribution in heart of Kunming mouse at 1 uCi, iv after 30 mins by gamma counting; format: ADME, organism-based; conditions: in vivo, 0.5 h
[42] = tested on: Lung; assay: Biodistribution in lung of Kunming mouse at 1 uCi, iv after 30 mins by gamma counting; format: ADME, organism-based; conditions: in vivo, 0.5 h
[43] = tested on: Spleen; assay: Biodistribution in spleen of Kunming mouse at 1 uCi, iv after 60 mins by gamma counting; format: ADME, organism-based; conditions: in vivo, 1 h
[44] = tested on: Kidney; assay: Biodistribution in kidney of Kunming mouse at 1 uCi, iv after 60 mins by gamma counting; format: ADME, organism-based; conditions: in vivo, 1 h
[45] = tested on: Heart; assay: Biodistribution in heart of Kunming mouse at 1 uCi, iv after 60 mins by gamma counting; format: ADME, organism-based; conditions: in vivo, 1 h
[46] = tested on: Muscle tissue; assay: Biodistribution in muscle of Kunming mouse at 1 uCi, iv after 60 mins by gamma counting; format: ADME, organism-based; conditions: in vivo, 1 h
[47] = tested on: Heart; assay: Biodistribution in heart of Kunming mouse at 1 uCi, iv after 240 mins by gamma counting; format: ADME, organism-based; conditions: in vivo, 4 h

COc1ccc2nc(-c3ccc(-c4ccc([125I])s4)s3)sc2c1
Drug uptake [1]: 43.6 % ID/g | Drug uptake [2]: 6.62 % ID/g | Drug uptake [3]: 2.73 % ID/g | Drug uptake [4]: 16.13 % ID/g | Drug uptake [5]: 4.92 % ID/g | logD [6]: 3.27 | Drug uptake [7]: 35.25 % ID/g | Drug uptake [8]: 4.53 % ID/g | Drug uptake [9]: 1.31 %ID | Drug uptake [10]: 33.95 %ID | Drug uptake [11]: 19.37 %ID | Drug uptake [12]: 0.64 % ID/g | Drug uptake [13]: 8.64 % ID/g | Drug uptake [14]: 2.46 % ID/g | Drug uptake [15]: 6.55 % ID/g | Drug uptake [16]: 4.33 % ID/g | Drug uptake [17]: 4.49 % ID/g | Drug uptake [18]: 5.05 % ID/g | Stability [19]: Stable | Drug uptake [20]: 3.48 % ID/g | Drug uptake [21]: 6.12 % ID/g | Drug uptake [22]: 0.87 % ID/g | Drug uptake [23]: 6.49 % ID/g | Drug uptake [24]: 3.42 % ID/g | Drug uptake [25]: 0.68 % ID/g | Drug uptake [26]: 0.53 % ID/g | Drug uptake [27]: 1.95 % ID/g | Drug uptake [28]: 23.34 % ID/g | Drug uptake [29]: 19.04 % ID/g | Drug uptake [30]: 5.76 % ID/g | Drug uptake [31]: 20.24 %ID | Drug uptake [32]: 14.3 % ID/g | Drug uptake [33]: 3.23 % ID/g | Drug uptake [34]: 7.7 % ID/g | Drug uptake [35]: 15.84 %ID | Drug uptake [36]: 0.77 % ID/g | Drug uptake [37]: 6.98 % ID/g | Drug uptake [38]: 5.67 % ID/g | Drug uptake [39]: 7.11 % ID/g | Drug uptake [40]: 6.58 % ID/g | Drug uptake [41]: 5.94 % ID/g | Drug uptake [42]: 10.28 % ID/g | Drug uptake [43]: 6.24 % ID/g | Drug uptake [44]: 6.28 % ID/g | Drug uptake [45]: 4.74 % ID/g | Drug uptake [46]: 3.56 % ID/g | Drug uptake [47]: 2.5 % ID/g

[125I]c1ccc2nc(-c3ccc(-c4cccs4)s3)sc2c1
Drug uptake [1]: 17.51 % ID/g | Drug uptake [2]: 1.76 % ID/g | Drug uptake [3]: 0.65 % ID/g | Drug uptake [4]: 4.39 % ID/g | Drug uptake [5]: 3.5 % ID/g | logD [6]: 3.65 | Drug uptake [7]: 53.64 % ID/g | Drug uptake [8]: 5.76 % ID/g | Drug uptake [9]: 0.39 %ID | Drug uptake [10]: 4.39 %ID | Drug uptake [11]: 3.24 %ID | Drug uptake [12]: 1.08 % ID/g | Drug uptake [13]: 8.01 % ID/g | Drug uptake [14]: 1.23 % ID/g | Drug uptake [15]: 2.12 % ID/g | Drug uptake [16]: 22.47 % ID/g | Drug uptake [17]: 2.07 % ID/g | Drug uptake [18]: 1.36 % ID/g | Drug uptake [20]: 1.5 % ID/g | Drug uptake [21]: 3.72 % ID/g | Drug uptake [22]: 3.42 % ID/g | Drug uptake [23]: 7.22 % ID/g | Drug uptake [24]: 1.01 % ID/g | Drug uptake [25]: 0.51 % ID/g | Drug uptake [26]: 0.5 % ID/g | Drug uptake [27]: 0.87 % ID/g | Drug uptake [28]: 9.02 % ID/g | Drug uptake [29]: 12.75 % ID/g | Drug uptake [30]: 29.12 % ID/g | Drug uptake [31]: 4.05 %ID | Drug uptake [32]: 4 % ID/g | Drug uptake [33]: 13.82 % ID/g | Drug uptake [34]: 5.76 % ID/g | Drug uptake [35]: 2.47 %ID | Drug uptake [36]: 0.53 % ID/g | Drug uptake [37]: 39.81 % ID/g | Drug uptake [38]: 7.33 % ID/g | Drug uptake [39]: 6.78 % ID/g | Drug uptake [40]: 1.96 % ID/g | Drug uptake [41]: 2.49 % ID/g | Drug uptake [42]: 8.04 % ID/g | Drug uptake [43]: 8.61 % ID/g | Drug uptake [44]: 8.52 % ID/g | Drug uptake [45]: 2.65 % ID/g | Drug uptake [46]: 1.47 % ID/g | Drug uptake [47]: 1.31 % ID/g
